{"source": "patent US20100216732A1", "about": "“Azithromycin for the treatment of nodular acne” (priority 2006, published 2010)", "key": {"[1]": {"tested_on": "severe acne vulgaris with multiple nodules", "assay": "Open label clinical study of daily or pulsed oral azithromycin, nodule counts over 3 months", "format": "in vivo, human", "conditions": "for Nodules in the 2 non-responding patients two months after initiation of therapy: single patients", "from_the_text": "The invention is further illustrated by the following non-limiting examples. In the examples, patients included in the study were male or female subjects of any race, 16 years of age or older. presenting with 20-60 inflammatory lesions (papules or pustules), 20 to 150 non-inflammatory lesions (comedones or whiteheads), and 3 to 10 nodules. Patients having severe acne vulgaris with multiple nodules were enrolled in an open label clinical study in which each patient received a daily oral dose of 250 mg of azithromycin for the 3-month duration of the study. Lesion counts were recorded at baseline before the initiation of treatment and at 1, 2, and 3 months following initiation of treatment. […] These 2 patients had 9 and 8 nodules, respectively, at baseline and 8 and 13 nodules, respectively two months after initiation of therapy. Of the favorable responders, two patients who began the study with 3 nodules had 2 nodules at the end of the three month study. The remaining 14 patients who responded favorably to treatment had on average 6.7 nodules at baseline (range 4 to 10 nodules) and improved to having no nodules (10 patients) or at most 1 nodule (4 patients) by the end of the three month course of treatment. Another set of patients with severe acne vulgaris was enrolled in an open label clinical study as in Example 1, except that each patient received a daily oral dose of 250 mg of azithromycin for one week followed by one week of no azithromycin, which cycle was repeated for the 3-month duration of the study. […] These 2 patients had 6 and 10 nodules, respectively, at baseline and 5 and 8 nodules, respectively, two months after initiation of therapy. Three patients had partial clearing of nodules during the study. These patients had 9, 10, and 6 nodules, respectively, at baseline and 3, 4, and 2 nodules, respectively, at the end of the study. Another set of patients with severe acne vulgaris was enrolled in an open label clinical study as in Example 1, except that each patient received a daily oral dose of 125 mg of azithromycin for the 3-month duration of the study. […] These 2 patients had 8 and 3 nodules, respectively, at baseline and 10 and 4 nodules, respectively two months after initiation of therapy. The 18 patients who responded favorably to treatment had on average 5.1 nodules at baseline (range 3 to 8 nodules) and improved to having no nodules (13 patients) or at most 1 nodule (5 patients) at the end of the three month course of treatment."}, "[2]": {"tested_on": "lesions of inflammatory acne", "conditions": "pulse-dose regimen, three-times-weekly, versus daily doxycycline, erythromycin, minocycline, tetracycline; cited from earlier work"}, "[3]": {"tested_on": "moderate to severe inflammatory acne", "conditions": "500 mg for three consecutive days in a 10 day cycle, with topical erythromycin; cited from earlier work"}, "[4]": {"tested_on": "nodular cystic acne", "conditions": "Pigatto study, in words; cited from earlier work"}, "[5]": {"conditions": "Example 1, 250 mg/day oral, 3 months, 18 patients"}, "[6]": {"conditions": "Example 2, 250 mg/day every other week, 3 months, 18 patients"}, "[7]": {"conditions": "Example 3, 125 mg/day oral, 3 months, 20 patients"}, "[8]": {"conditions": "Total Examples 1 to 3, 56 patients"}}, "note": "“And” between values parts separate entries of the source, which are not always exact repeats. Identical values can stand only once.", "data": [{"molecule": "CC[C@H]1OC(=O)[C@H](C)[C@@H](O[C@H]2C[C@@](C)(OC)[C@@H](O)[C@H](C)O2)[C@H](C)[C@@H](O[C@@H]2O[C@H](C)C[C@H](N(C)C)[C@H]2O)[C@](C)(O)C[C@@H](C)CN(C)[C@H](C)[C@@H](O)[C@]1(C)O", "note": "[azithromycin, 9-deoxo-9a-aza-9a-methyl-9a-homoerythromycin A]", "values": [{"measurement": "Number of patients that did not respond favorably to treatment", "setting": "[1]; Example 1, 250 mg daily oral, of 18 patients in study longer than one month", "value": 2}, {"measurement": "Number of patients improved to at most 1 nodule by end of three month treatment", "setting": "[1]; Example 1, 250 mg daily, of remaining 14 favorable responders, average 6.7 nodules at baseline", "value": 4, "unit": "patients"}, {"measurement": "Number of patients improved to having no nodules by end of three month treatment", "setting": "[1]; Example 1, 250 mg daily, of remaining 14 favorable responders, average 6.7 nodules at baseline (range 4 to 10)", "value": 10, "unit": "patients"}, {"measurement": "Nodules in the 2 non-responding patients two months after initiation of therapy", "setting": "[1]; Example 1, 250 mg daily, 9 and 8 nodules at baseline, respectively", "value": "8 nodules and 13 nodules"}, {"measurement": "Nodules at the end of the three month study in two favorable responders", "setting": "[1]; Example 1, 250 mg daily, two patients who began with 3 nodules", "value": 2, "unit": "nodules"}, {"measurement": "Number of good responders", "setting": "[1]; [5]", "value": 16}, {"measurement": "Percentage of good responders", "setting": "[1]; [5]", "value": 88.9, "unit": "%"}, {"measurement": "Percentage of nodules cleared in good responders", "setting": "[1]; Example 1, 250 mg/day, 16 good responders", "value": 92.0, "unit": "%"}, {"measurement": "Nodules in good responders after treatment", "setting": "[1]; Example 1, 250 mg/day, 16 good responders, nodules before 100", "value": 8}, {"measurement": "Percentage of nodules cleared", "setting": "[1]; Example 1, 250 mg/day, all 18 patients", "value": 75.2, "unit": "%"}, {"measurement": "Nodules remaining after treatment", "setting": "[1]; Example 1, 250 mg/day, all 18 patients, number of nodules before 117", "value": 29}, {"measurement": "Number of patients improved to at most 1 nodule at end of three month treatment", "setting": "[1]; Example 2, 250 mg daily every other week, of remaining 13 favorable responders, average 6.2 nodules at baseline", "value": 3, "unit": "patients"}, {"measurement": "Number of patients improved to having no nodules at end of three month treatment", "setting": "[1]; Example 2, 250 mg daily every other week, of remaining 13 favorable responders, average 6.2 nodules at baseline (range 3 to 10)", "value": 10, "unit": "patients"}, {"measurement": "Nodules in the 2 non-responding patients two months after initiation of therapy", "setting": "[1]; Example 2, 250 mg daily every other week, 6 and 10 nodules at baseline, respectively", "value": "5 nodules and 8 nodules"}, {"measurement": "Nodules at the end of the study in three patients with partial clearing", "setting": "[1]; Example 2, 250 mg daily every other week, single patients, 9, 10 and 6 nodules at baseline, respectively", "value": "3 nodules and 4 nodules and 2 nodules"}, {"measurement": "Number of patients that did not respond favorably to treatment", "setting": "[1]; Example 2, 250 mg daily one week on, one week off, of 18 patients", "value": 2}, {"measurement": "Number of good responders", "setting": "[1]; [6]", "value": 16}, {"measurement": "Percentage of good responders", "setting": "[1]; [6]", "value": 88.9, "unit": "%"}, {"measurement": "Percentage of nodules cleared in good responders", "setting": "[1]; Example 2, 250 mg/day every other week, 16 good responders", "value": 87.9, "unit": "%"}, {"measurement": "Nodules in good responders after treatment", "setting": "[1]; Example 2, 250 mg/day every other week, 16 good responders, nodules before 99", "value": 12}, {"measurement": "Percentage of nodules cleared", "setting": "[1]; Example 2, 250 mg/day every other week, all 18 patients", "value": 78.3, "unit": "%"}, {"measurement": "Nodules remaining after treatment", "setting": "[1]; Example 2, 250 mg/day every other week, all 18 patients, number of nodules before 115", "value": 25}, {"measurement": "Number of patients that did not respond favorably to treatment", "setting": "[1]; Example 3, 125 mg daily oral, of 20 patients", "value": 2}, {"measurement": "Number of patients improved to at most 1 nodule at end of three month treatment", "setting": "[1]; Example 3, 125 mg daily, of 18 favorable responders, average 5.1 nodules at baseline", "value": 5, "unit": "patients"}, {"measurement": "Number of patients improved to having no nodules at end of three month treatment", "setting": "[1]; Example 3, 125 mg daily, of 18 favorable responders, average 5.1 nodules at baseline (range 3 to 8)", "value": 13, "unit": "patients"}, {"measurement": "Nodules in the 2 non-responding patients two months after initiation of therapy", "setting": "[1]; Example 3, 125 mg daily, 8 and 3 nodules at baseline, respectively", "value": "10 nodules and 4 nodules"}, {"measurement": "Number of good responders", "setting": "[1]; [7]", "value": 18}, {"measurement": "Percentage of good responders", "setting": "[1]; [7]", "value": 90.0, "unit": "%"}, {"measurement": "Percentage of nodules cleared in good responders", "setting": "[1]; Example 3, 125 mg/day, 18 good responders", "value": 94.6, "unit": "%"}, {"measurement": "Nodules in good responders after treatment", "setting": "[1]; Example 3, 125 mg/day, 18 good responders, nodules before 92", "value": 5}, {"measurement": "Percentage of nodules cleared", "setting": "[1]; Example 3, 125 mg/day, all 20 patients", "value": 81.6, "unit": "%"}, {"measurement": "Nodules remaining after treatment", "setting": "[1]; Example 3, 125 mg/day, all 20 patients, number of nodules before 103", "value": 19}, {"measurement": "Nodules in good responders after treatment", "setting": "[1]; Total Examples 1 to 3, 50 good responders, nodules before 291", "value": 25}, {"measurement": "Number of good responders", "setting": "[1]; [8]", "value": 50}, {"measurement": "Percentage of nodules cleared", "setting": "[1]; [8]", "value": 78.2, "unit": "%"}, {"measurement": "Nodules remaining after treatment", "setting": "[1]; Total Examples 1 to 3, 56 patients, number of nodules before 335", "value": 73}, {"measurement": "Efficacy in treating nodular acne vulgaris, including severe nodular acne vulgaris", "setting": "[1]; systemic administration, Examples 1 to 3", "value": "highly efficacious"}, {"measurement": "Efficacy in treating lesions of inflammatory acne", "setting": "[2]", "value": "as effective as other antibiotics tested"}, {"measurement": "Efficacy in treating moderate to severe acne vulgaris", "setting": "[3]", "value": "effective"}]}, {"molecule": "CC1=C(/C=C/C(C)=C/C=C/C(C)=C\\C(=O)O)C(C)(C)CCC1", "note": "[isotretinoin]", "values": [{"measurement": "Efficacy in treating nodular cystic acne", "setting": "[4]", "value": "highly efficacious"}]}]}
